Measured values taken from the NIST ThermoML archive (doi:10.1016/j.jct.2012.11.002).
Numbers after ± are expanded uncertainties.

Settings: Liquid, Vibrating tube method

CCOC(=O)C(C)O (racemic) [DL-ethyl lactate]
mass density (313.15 K, 100 kPa): 1012.33 ± 0.86 kg/m3 | mass density (313.15 K, 2500 kPa): 1014.31 ± 0.87 kg/m3 | mass density (313.15 K, 5000 kPa): 1016.42 ± 0.87 kg/m3 | mass density (313.15 K, 7500 kPa): 1018.41 ± 0.88 kg/m3 | mass density (313.15 K, 10000 kPa): 1020.39 ± 0.89 kg/m3 | mass density (313.15 K, 20000 kPa): 1027.93 ± 0.92 kg/m3 | mass density (313.15 K, 30000 kPa): 1034.97 ± 0.95 kg/m3 | mass density (313.15 K, 40000 kPa): 1041.52 ± 0.99 kg/m3 | mass density (313.15 K, 50000 kPa): 1047.69 ± 1 kg/m3 | mass density (313.15 K, 60000 kPa): 1053.46 ± 1.1 kg/m3 | mass density (318.15 K, 100 kPa): 1006.72 ± 0.85 kg/m3 | mass density (318.15 K, 2500 kPa): 1008.86 ± 0.86 kg/m3 | mass density (318.15 K, 5000 kPa): 1011.01 ± 0.86 kg/m3 | mass density (318.15 K, 7500 kPa): 1013.1 ± 0.87 kg/m3 | mass density (318.15 K, 10000 kPa): 1015.13 ± 0.87 kg/m3 | mass density (318.15 K, 20000 kPa): 1022.87 ± 0.9 kg/m3 | mass density (318.15 K, 30000 kPa): 1030.04 ± 0.93 kg/m3 | mass density (318.15 K, 40000 kPa): 1036.74 ± 0.97 kg/m3 | mass density (318.15 K, 50000 kPa): 1042.96 ± 1 kg/m3 | mass density (318.15 K, 60000 kPa): 1048.96 ± 1.1 kg/m3 | mass density (323.15 K, 100 kPa): 1001.23 ± 0.84 kg/m3 | mass density (323.15 K, 2500 kPa): 1003.36 ± 0.84 kg/m3 | mass density (323.15 K, 5000 kPa): 1005.56 ± 0.85 kg/m3 | mass density (323.15 K, 7500 kPa): 1007.68 ± 0.86 kg/m3 | mass density (323.15 K, 10000 kPa): 1009.78 ± 0.86 kg/m3 | mass density (323.15 K, 20000 kPa): 1017.76 ± 0.89 kg/m3 | mass density (323.15 K, 30000 kPa): 1025.13 ± 0.92 kg/m3 | mass density (323.15 K, 40000 kPa): 1031.99 ± 0.95 kg/m3 | mass density (323.15 K, 50000 kPa): 1038.42 ± 0.99 kg/m3 | mass density (323.15 K, 60000 kPa): 1044.49 ± 1 kg/m3 | mass density (328.15 K, 100 kPa): 995.54 ± 0.83 kg/m3 | mass density (328.15 K, 2500 kPa): 997.8 ± 0.84 kg/m3 | mass density (328.15 K, 5000 kPa): 1000.11 ± 0.84 kg/m3 | mass density (328.15 K, 7500 kPa): 1002.34 ± 0.84 kg/m3 | mass density (328.15 K, 10000 kPa): 1004.46 ± 0.85 kg/m3 | mass density (328.15 K, 20000 kPa): 1012.65 ± 0.87 kg/m3 | mass density (328.15 K, 30000 kPa): 1020.17 ± 0.9 kg/m3 | mass density (328.15 K, 40000 kPa): 1027.16 ± 0.93 kg/m3 | mass density (328.15 K, 50000 kPa): 1033.75 ± 0.97 kg/m3 | mass density (328.15 K, 60000 kPa): 1039.99 ± 1 kg/m3 | mass density (333.15 K, 100 kPa): 989.91 ± 0.83 kg/m3 | mass density (333.15 K, 2500 kPa): 992.19 ± 0.83 kg/m3 | mass density (333.15 K, 5000 kPa): 994.55 ± 0.83 kg/m3 | mass density (333.15 K, 7500 kPa): 996.87 ± 0.83 kg/m3 | mass density (333.15 K, 10000 kPa): 999.06 ± 0.84 kg/m3 | mass density (333.15 K, 20000 kPa): 1007.62 ± 0.86 kg/m3 | mass density (333.15 K, 30000 kPa): 1015.4 ± 0.89 kg/m3 | mass density (333.15 K, 40000 kPa): 1022.5 ± 0.92 kg/m3 | mass density (333.15 K, 50000 kPa): 1029.24 ± 0.95 kg/m3 | mass density (333.15 K, 60000 kPa): 1035.71 ± 0.99 kg/m3 | mass density (338.15 K, 100 kPa): 984.3 ± 0.82 kg/m3 | mass density (338.15 K, 2500 kPa): 986.71 ± 0.82 kg/m3 | mass density (338.15 K, 5000 kPa): 989.18 ± 0.83 kg/m3 | mass density (338.15 K, 7500 kPa): 991.49 ± 0.83 kg/m3 | mass density (338.15 K, 10000 kPa): 993.65 ± 0.83 kg/m3 | mass density (338.15 K, 20000 kPa): 1002.34 ± 0.84 kg/m3 | mass density (338.15 K, 30000 kPa): 1010.27 ± 0.87 kg/m3 | mass density (338.15 K, 40000 kPa): 1017.75 ± 0.9 kg/m3 | mass density (338.15 K, 50000 kPa): 1024.55 ± 0.93 kg/m3 | mass density (338.15 K, 60000 kPa): 1031.04 ± 0.97 kg/m3
